Results reported in PMC7615677 (Science translational medicine, 2023).
Values joined by “and” are separate entries in the source; they are usually repeats but may differ in a detail not shown here. Equal entries are not always repeated.

Legend:
L. infantum = experiment: Promastigote back-transformation assay on organs of treated hamsters; type: in vivo, golden hamsters; conditions: for parasite score, Bone-marrow / parasite score, Liver / parasite score, Spleen: 5 days, individual animals 1-5
Excerpt: Female golden hamsters (5 per treatment group) were infected through intracardiac administration of 2x10^7 L. infantum amastigotes obtained from the spleen of a heavily infected donor hamster. […] After 5-day treatment period, followed by a 10-day wash out period, animals were sacrificed, and parasites burden assessed in the three target organs (liver, spleen, and bone-marrow). For this assessment, organs of individual animals were weighed, except for bone-marrow thus only providing a semi-quantitative evaluation only. Impression smears were Giemsa-stained for microscopic evaluation of amastigote burden, expressed as LDU (= mean number of amastigotes/cell × organ weight in mg) and the results were expressed as a percentage reduction compared to the burdens in the control group (vehicle as placebo). For evaluating the presence of viable residual burden after treatment, a promastigote back-transformation assay was conducted. This consisted of the incubation at ambient temperature of aseptically collected pieces of spleen or liver tissue in 1 mL of promastigote back-transformation medium in 24-well plates. For the bone-marrow, resected femurs were flushed with 1 mL medium. The medium consists of HOMEM pH 6.0 prepared as described elsewhere ([5]) with 10% fetal bovine serum (Gibco), 2.5% penicillin/streptomycin and 1% gentamicin (Merck). A qualitative assessment of the presence of promastigotes was made after 3 and 5 days of incubation and a score was attributed (+, ++ or +++) based on parasite density in the positive wells.
Supplementary Materials and methods
Promastigote transformation assay
For evaluating the presence of viable residual burdens after treatment, a promastigote back-transformation assay is conducted. This test consists of the incubation at ambient temperature of aseptically collected pieces of spleen or liver tissue in 1 mL of promastigote back-transformation medium in 24-well plates. For the bone-marrow, resected femurs are flushed with 1 mL medium. The medium consists of HOMEM pH 6.0 prepared as described elsewhere (1) with 10% fetal bovine serum (Gibco) and 2.5% penicillin/streptomycin and 1% gentamicin (Merck). A qualitative assessment of the presence of promastigotes is made after 3 and 5 days of incubation and a score is attributed (+, ++ or +++) based on parasite density in the positive […]
Supplementary Information on Tables
L. infantum MHOM/FR/96/LEM3323 Cl4 was originally obtained from a French HIV-positive patient (Languedoc area in Southern France) and provided by Dr. Laurence Lachaud of the Centre National de Référence des Leishmanioses (CNRL), Montpellier, France. The miltefosine and paromomycin resistant lines (LEM3323 Cl4 MIL-R and PMM-R) were obtained by successive in vitro selection cycles on intracellular amastigotes (2, 3)

[1] = Plasma protein binding (rapid equilibrium dialysis); type: in vitro ADME; conditions: diluted to 10% in PBS, pH 7.4
Experimental: Human plasma was purchased from Innovative Research, Inc (Novi, MI, USA). Dog (beagle), rat (Sprague Dawley) and hamster (golden Syrian) plasma were procured from Valley Biomedical Products and Services, Inc. (Winchester, VA, USA). Mouse (BALB/c) plasma was collected in-house (animals sourced from Monash Animal Services, Monash University). All plasma was stored frozen at -20°C until use.
Plasma protein binding was assessed using rapid equilibrium dialysis (RED) according to methods published previously ([10]). […] Parallel spiked aliquots of 10% plasma were used to assess compound stability under the same incubation conditions. At the completion of the dialysis period, aliquots were taken from the donor and dialysate chambers to obtain measurements of the total and free concentration, respectively. The pH of the matrix and dialysate were confirmed to be within pH 7.4 ± 0.1 for the duration of the experiment.
Dialysis was conducted for 6 h and parallel non-dialyzed samples were included to confirm the absence of compound degradation. Binding to hepatocytes (at a cell density of 1 x 10^6 cells/mL) was calculated from the measured microsomal binding (at 1 mg/mL) as described previously ([26]). The fraction unbound (fu) was determined from the ratio of the dialysate to the donor concentration, assuming that the system was at steady state at the end of the dialysis period. For plasma, the data were corrected for the dilution factor to give a binding value for neat plasma according to previously published methods ([27]).

[2] = In vitro cytotoxicity assay; type: cell-based; conditions: human, HepG2 human hepatocellular carcinoma cells
[3] = In vitro cytotoxicity assay; type: cell-based; conditions: human, HFF human foreskin fibroblasts
[4] = target: T1, alpha1A Human Adrenoceptor GPCR (Homo sapiens, UniProt P35348); experiment: α1A antagonism IC50 determination; type: cell-based
T1 construct: Eurofins (contract assay)
Excerpt: Listed values represent the percent change relative to the DMSO control activity. When an IC50 had to be determined, eight different concentrations were included. All values are the mean of assay readout duplicates.

T1 sequence (P35348 whole entry): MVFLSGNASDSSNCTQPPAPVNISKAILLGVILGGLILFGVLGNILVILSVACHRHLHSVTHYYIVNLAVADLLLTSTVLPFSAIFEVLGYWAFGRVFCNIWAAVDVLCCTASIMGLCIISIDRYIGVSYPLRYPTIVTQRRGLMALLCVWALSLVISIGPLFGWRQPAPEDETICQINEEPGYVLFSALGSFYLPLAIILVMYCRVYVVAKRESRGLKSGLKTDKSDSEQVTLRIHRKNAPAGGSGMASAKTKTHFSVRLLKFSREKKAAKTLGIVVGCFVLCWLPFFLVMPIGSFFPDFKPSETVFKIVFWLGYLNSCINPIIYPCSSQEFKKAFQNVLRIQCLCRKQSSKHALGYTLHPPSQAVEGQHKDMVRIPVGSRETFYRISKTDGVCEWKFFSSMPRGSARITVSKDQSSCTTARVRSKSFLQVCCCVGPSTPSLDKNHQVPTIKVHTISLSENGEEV

## Cc1[nH]c2nc(N)nc(C)c2c1-c1ccc(C#N)c2c1OCO2 [DNDI-6174]
L. infantum; 3.125 mg/kg bid
  parasite score, Bone-marrow: ++
  parasite score, Liver: + (3×) and - (2×)
  parasite score, Spleen: ++
L. infantum; 12.5 mg/kg bid
  parasite score, Bone-marrow: - and +
  parasite score, Liver: -
  parasite score, Spleen: - and +
L. infantum; 12.5 mg/kg qd
  parasite score, Bone-marrow: + (3×) and ++ (2×)
  parasite score, Liver: + (3×) and - (2×)
  parasite score, Spleen: ++ (4×) and +
L. infantum; 25 mg/kg qd
  parasite score, Bone-marrow: + and - (4×)
  parasite score, Liver: - (4×) and +
  parasite score, Spleen: -
L. infantum; 50 mg/kg qd
  parasite score, Bone-marrow: - (4×) and +
  parasite score, Liver: - (4×) and +
  parasite score, Spleen: - (4×) and +
L. infantum; DNDI-6174 treated animals
  emergence of viable promastigotes from recovered organs, in words: almost all the organs recovered proved to be negative in culture
[1]; BALB/c, mouse
  fraction unbound at 24 h: 0.12
[1]; Sprague Dawley, rat
  fraction unbound at 24 h: 0.069
[1]; beagle, dog
  fraction unbound at 24 h: 0.05
[1]; golden Syrian, hamster
  fraction unbound at 24 h: 0.09
[1]; human
  fraction unbound at 24 h: 0.059
[2]
  CC50: > 64 µM
[3]
  CC50: > 64 µM
[4]
  IC50: 12.8 µM
